Consider 29 molecules from ChEMBL document CHEMBL3217610, “SAR investigations on a novel class of gamma-secretase modulators based on a unique scaffold” (Medchemcomm, 2013).

Assay [1] has as its target Gamma-secretase. Nature of the assay: Modulation of gamma-secretase (unknown origin) assessed as inhibition of amyloid beta 42 production. It is filed as protein-complex assay, Homo sapiens.
Assay [2] concerns the target Gamma-secretase. The experiment in a line: Modulation of gamma-secretase (unknown origin) assessed as inhibition of amyloid beta 40 production. It is filed as protein-complex assay, Homo sapiens.
Assay [3] concerns the target T1, Gamma-secretase (Homo sapiens) (UniProt Q96BI3+Q9NZ42+Q8WW43+P49768+Q92542+P49810). The experiment in a line: Selectivity ratio of IC50 for modulation of gamma-secretase (unknown origin) assessed as inhibition of amyloid beta 40 production to IC50 for modulation of gamma-secretase (unknown origin) assessed as inhibition of amyloid beta 42 production. The class given is protein-complex assay.

Assay [4] addresses T1, Gamma-secretase (Homo sapiens). The experiment in a line: Modulation of gamma-secretase (unknown origin) assessed as inhibition of amyloid beta 40 production at 20 uM relative to control. The class given is protein-complex assay.

Molecules are shown by their SMILES.

In general, IC50 refers to the concentration at which inhibition is half-maximal. With `CC(=O)OC(C)(C)[C@H]1O[C@@]23O[C@H]1C[C@@H](C)C2[C@@]1(C)CC[C@@]24C[C@@]25CC[C@H](O[C@@H]2OC[C@@H](O)[C@H](O)[C@H]2O)C(C)(C)[C@@H]5CC[C@H]4[C@]1(C)[C@H]3O` (some centres undefined), the IC50 at Gamma-secretase [1] stood at 3000 nM.
With `CC(=O)O[C@@H]([C@@H]1C[C@@H](C)[C@H]2[C@H](O1)[C@H](O)[C@@]1(C)[C@@H]3CC[C@H]4C(C)(C)[C@@H](OC(=O)NCCN)CC[C@@]45C[C@@]35CC[C@]21C)C(C)(C)O`, the IC50 stood at 3000 nM at Gamma-secretase [2] and 91 nM at Gamma-secretase [1]. Also, in assay [3], the Ratio IC50 is 33.
What is called inhibition is the change of the read-out against control, counted positive when it falls. On to `CC(=O)O[C@@H]([C@@H]1C[C@@H](C)[C@H]2[C@H](O1)[C@H](O)[C@@]1(C)[C@@H]3CC[C@H]4C(C)(C)[C@@H](OC(N)=O)CC[C@@]45C[C@@]35CC[C@]21C)C(C)(C)O`, for which the Ratio IC50 in assay [3] is above 100. For the same molecule, the inhibition in assay [4] was found to be 27%. Further, the IC50 on Gamma-secretase [1] amounted to 200 nM.
For the molecule `CC(=O)O[C@@H]([C@@H]1C[C@@H](C)[C@H]2[C@H](O1)[C@H](O)[C@@]1(C)[C@@H]3CC[C@H]4C(C)(C)[C@@H](OC(=O)c5ccccn5)CC[C@@]45C[C@@]35CC[C@]21C)C(C)(C)O`, the IC50 at Gamma-secretase [2] was found to be 13000 nM; on Gamma-secretase [1], 520 nM. Moreover, in assay [3], the Ratio IC50 was found to be 25.
Regarding `CC(=O)O[C@@H]([C@@H]1C[C@@H](C)[C@H]2[C@H](O1)[C@H](O)[C@@]1(C)[C@@H]3CC[C@H]4C(C)(C)[C@@H](OC(=O)C5(C)COC5)CC[C@@]45C[C@@]35CC[C@]21C)C(C)(C)O`, the Ratio IC50 in assay [3] was above 33. In addition, the inhibition in assay [4] amounted to 41%. Besides, the IC50 on Gamma-secretase [1] turned out to be 590 nM.
Taken in the same sequence, the figures for `CC(=O)O[C@@H]([C@@H]1C[C@@H](C)[C@H]2[C@H](O1)[C@H](O)[C@@]1(C)[C@@H]3CC[C@H]4C(C)(C)[C@@H](OC(=O)C5CCCO5)CC[C@@]45C[C@@]35CC[C@]21C)C(C)(C)O` (mixture of isomers) were above 23, 44% and 860 nM.
On to `CC(=O)O[C@@H]([C@@H]1C[C@@H](C)[C@H]2[C@H](O1)[C@H](O)[C@@]1(C)[C@@H]3CC[C@H]4C(C)(C)[C@@H](OC(=O)[C@@H]5CCCN5)CC[C@@]45C[C@@]35CC[C@]21C)C(C)(C)O`, for which the IC50 is 4600 nM on Gamma-secretase [2] and 230 nM at Gamma-secretase [1]. Further, the Ratio IC50 in assay [3] was found to be 20.
Taken in the same sequence, the figures for `CC(=O)O[C@@H]([C@@H]1C[C@@H](C)[C@H]2[C@H](O1)[C@H](O)[C@@]1(C)[C@@H]3CC[C@H]4C(C)(C)[C@@H](OC(=O)N5CCC5)CC[C@@]45C[C@@]35CC[C@]21C)C(C)(C)O` were 14700 nM, 340 nM and 43.
As for `CC(=O)O[C@@H]([C@@H]1C[C@@H](C)[C@H]2[C@H](O1)[C@H](O)[C@@]1(C)[C@@H]3CC[C@H]4C(C)(C)[C@@H](OC(=O)NC5CNC5)CC[C@@]45C[C@@]35CC[C@]21C)C(C)(C)O`, the IC50 came out at 330 nM on Gamma-secretase [2] and 47 nM on Gamma-secretase [1]. Further, the Ratio IC50 in assay [3] came out at 7.
For the molecule `CC(=O)O[C@@H]([C@@H]1C[C@@H](C)[C@H]2[C@H](O1)[C@H](O)[C@@]1(C)[C@@H]3CC[C@H]4C(C)(C)[C@@H](OC(=O)C5CNC5)CC[C@@]45C[C@@]35CC[C@]21C)C(C)(C)O`, the results for the IC50 on Gamma-secretase [2] and on Gamma-secretase [1] were 1300 nM and 55 nM, respectively. In addition, in assay [3], the Ratio IC50 was determined as 24.
For `CC(=O)O[C@@H]([C@@H]1C[C@@H](C)[C@H]2[C@H](O1)[C@H](O)[C@@]1(C)[C@@H]3CC[C@H]4C(C)(C)[C@@H](OC(=O)Cc5ccccn5)CC[C@@]45C[C@@]35CC[C@]21C)C(C)(C)O`, the IC50 at Gamma-secretase [2] was 7200 nM; on Gamma-secretase [1], 780 nM. Further, the Ratio IC50 in assay [3] turned out to be 9.
As to `CC(=O)O[C@@H]([C@@H]1C[C@@H](C)[C@H]2[C@H](O1)[C@H](O)[C@@]1(C)[C@@H]3CC[C@H]4C(C)(C)[C@@H](OC(=O)C5CCN5)CC[C@@]45C[C@@]35CC[C@]21C)C(C)(C)O` (mixture of isomers), at Gamma-secretase [1], the IC50 amounted to 220 nM.
On to `CC(=O)O[C@@H]([C@@H]1C[C@@H](C)[C@H]2[C@H](O1)[C@H](O)[C@@]1(C)[C@@H]3CC[C@H]4C(C)(C)[C@@H](OC(=O)c5ccncc5)CC[C@@]45C[C@@]35CC[C@]21C)C(C)(C)O`, for which the IC50 at Gamma-secretase [1] came to 1000 nM.
For `CC(=O)O[C@@H]([C@@H]1C[C@@H](C)[C@H]2[C@H](O1)[C@H](O)[C@@]1(C)[C@@H]3CC[C@H]4C(C)(C)[C@@H](OC(=O)CN)CC[C@@]45C[C@@]35CC[C@]21C)C(C)(C)O`, on Gamma-secretase [1], the IC50 came out at 95 nM.
Consider `CC(=O)O[C@@H]([C@@H]1C[C@@H](C)[C@H]2[C@H](O1)[C@H](O)[C@@]1(C)[C@@H]3CC[C@H]4C(C)(C)[C@@H](OC(=O)NCCN5CCOCC5)CC[C@@]45C[C@@]35CC[C@]21C)C(C)(C)O`, for which the Ratio IC50 in assay [3] was above 86. Further, in assay [4], the inhibition came out at 31%. The 50% inhibitory concentration (IC50) at Gamma-secretase [1] is 230 nM.
Turning to `C[C@@H]1C[C@@H]([C@H](O)C(C)(C)O)O[C@H]2[C@H]1[C@@]1(C)CC[C@@]34C[C@@]35CC[C@H](O[C@@H]3OC[C@@H](O)[C@H](O)[C@H]3O)C(C)(C)[C@@H]5CC[C@H]4[C@]1(C)[C@H]2O`, on Gamma-secretase [1], the 50% inhibitory concentration (IC50) amounted to 3100 nM.
Turning to `CC(=O)O[C@@H]([C@@H]1C[C@@H](C)[C@H]2[C@H](O1)[C@H](O)[C@@]1(C)[C@@H]3CC[C@H]4C(C)(C)[C@@H](OC(=O)NCC(=O)O)CC[C@@]45C[C@@]35CC[C@]21C)C(C)(C)O`, the Ratio IC50 in assay [3] was above 8. For the same molecule, the inhibition in assay [4] amounted to 37%. In addition, the half-maximal inhibitory concentration (IC50) at Gamma-secretase [1] turned out to be 2500 nM.
For `CC(=O)O[C@@H]([C@@H]1C[C@@H](C)[C@H]2[C@H](O1)[C@H](O)[C@@]1(C)[C@@H]3CC[C@H]4C(C)(C)[C@@H](OC(=O)CN(C)C)CC[C@@]45C[C@@]35CC[C@]21C)C(C)(C)O`, the IC50 on Gamma-secretase [2] stood at 8400 nM; at Gamma-secretase [1] it was 570 nM. Besides, the Ratio IC50 in assay [3] worked out at 15.
Taken in the same sequence, the figures for `CC(=O)O[C@H]1CC[C@]23C[C@]24CC[C@]2(C)[C@@H]5[C@H](O[C@H]([C@H](OC(C)=O)C(C)(C)O)C[C@H]5C)[C@H](O)[C@@]2(C)[C@@H]4CC[C@H]3C1(C)C` were 12000 nM, 760 nM and 16.
On the same counts, the results for `CC(=O)O[C@@H]([C@@H]1C[C@@H](C)[C@H]2[C@H](O1)[C@H](O)[C@@]1(C)[C@@H]3CC[C@H]4C(C)(C)[C@@H](OC(=O)c5cccnc5)CC[C@@]45C[C@@]35CC[C@]21C)C(C)(C)O` are 14000 nM, 260 nM and 54.
Regarding `CC(=O)O[C@@H]([C@@H]1C[C@@H](C)[C@H]2[C@H](O1)C(=O)[C@@]1(C)[C@@H]3CC[C@H]4C(C)(C)[C@@H](O[C@@H]5OC[C@@H](O)[C@H](O)[C@H]5O)CC[C@@]45C[C@@]35CC[C@]21C)C(C)(C)O`, the values for the IC50 at Gamma-secretase [2] and at Gamma-secretase [1] were 9800 nM and 600 nM, respectively.
As for `CC(=O)O[C@@H]([C@@H]1C[C@@H](C)[C@H]2[C@H](O1)[C@H](O)[C@@]1(C)[C@@H]3CC[C@H]4C(C)(C)[C@@H](O)CC[C@@]45C[C@@]35CC[C@]21C)C(C)(C)O`, the IC50 turned out to be 14000 nM on Gamma-secretase [2] and 600 nM on Gamma-secretase [1].
For the molecule `CC(=O)O[C@@H]([C@@H]1C[C@@H](C)[C@H]2[C@H](O1)[C@H](O)[C@@]1(C)[C@@H]3CC[C@H]4C(C)(C)[C@@H](OC(=O)NCc5ccccn5)CC[C@@]45C[C@@]35CC[C@]21C)C(C)(C)O`, the Ratio IC50 in assay [3] is above 35. The inhibition in assay [4] worked out at 32%. At Gamma-secretase [1], the IC50 is 560 nM.
For `CC(=O)O[C@@H]([C@@H]1C[C@@H](C)[C@H]2[C@H](O1)[C@H](O)[C@@]1(C)[C@@H]3CC[C@H]4C(C)(C)[C@@H](OC(=O)CCC(=O)O)CC[C@@]45C[C@@]35CC[C@]21C)C(C)(C)O`, the IC50 turned out to be 18000 nM on Gamma-secretase [2] and 1600 nM at Gamma-secretase [1]. Further, the Ratio IC50 in assay [3] amounted to 11.
As to `CC(=O)O[C@@H]([C@@H]1C[C@@H](C)[C@H]2[C@H](O1)[C@H](O)[C@@]1(C)[C@@H]3CC[C@H]4C(C)(C)[C@@H](OC(=O)NC5CCC5)CC[C@@]45C[C@@]35CC[C@]21C)C(C)(C)O`, the Ratio IC50 in assay [3] was above 42. The inhibition in assay [4] came to 26%. Further, the IC50 at Gamma-secretase [1] was 470 nM.
As to `CC(=O)O[C@@H]([C@@H]1C[C@@H](C)[C@H]2[C@H](O1)[C@H](O)[C@@]1(C)[C@@H]3CC[C@H]4C(C)(C)[C@@H](OC(=O)N5CCOCC5)CC[C@@]45C[C@@]35CC[C@]21C)C(C)(C)O`, the IC50 worked out at 13600 nM at Gamma-secretase [2] and 220 nM at Gamma-secretase [1]. The Ratio IC50 in assay [3] was 62.
As for `CC(=O)O[C@@H]([C@@H]1C[C@@H](C)[C@H]2[C@H](O1)[C@H](O)[C@@]1(C)[C@@H]3CC[C@H]4C(C)(C)[C@@H](O[C@@H]5OC[C@@H](O)[C@H](O)[C@H]5O)CC[C@@]45C[C@@]35CC[C@]21C)C(C)(C)O`, the IC50 at Gamma-secretase [2] is 1000 nM; at Gamma-secretase [1] it was 60 nM.
With `CC(=O)O[C@@H]([C@@H]1C[C@@H](C)[C@H]2[C@H](O1)[C@H](O)[C@@]1(C)[C@@H]3CC[C@H]4C(C)(C)[C@@H](OC(=O)NC5COC5)CC[C@@]45C[C@@]35CC[C@]21C)C(C)(C)O`, in assay [3], the Ratio IC50 is above 44. The inhibition in assay [4] was 40%. Also, the IC50 at Gamma-secretase [1] turned out to be 450 nM.
Turning to `CC(=O)O[C@@H]([C@@H]1C[C@@H](C)[C@H]2[C@H](O1)[C@H](O)[C@@]1(C)[C@@H]3CC[C@H]4C(C)(C)[C@@H](OC(=O)NC5CN6CCC5CC6)CC[C@@]45C[C@@]35CC[C@]21C)C(C)(C)O` (some centres undefined), the IC50 came to 2400 nM at Gamma-secretase [2] and 84 nM on Gamma-secretase [1]. The Ratio IC50 in assay [3] worked out at 29.
